This is an account of results in patent publication US20230373972A1, “PIPERAZINE DERIVATIVE, PREPARATION METHOD THEREFOR AND USE THEREOF” (Zhejiang Hisun Pharmaceutical Co., Ltd., priority 2020, published 2023).

Data set [1] can be described thus: Metabolic stability in mouse liver microsomes. It counts as in vitro ADME. How it is done:
The experiment was intended to study the metabolic stability of the compounds of the present invention in dog and mouse liver microsomes.
A test compound and the compound of Comparative Example 1 were incubated with dog and mouse liver microsomes (the Corning Company. USA) respectively, and a coenzyme NADPH was added to start the reaction. 135 μL of acetonitrile containing an internal standard (IS) was added to wells of a corresponding plate after 0, 5, 15, 30 and 45 minutes respectively to terminate the reaction. After protein precipitation, the solution was centrifuged at 5.594 rpm for 15 minutes, and a supernatant was taken. The supernatant was diluted with water by 1:1 (volume ratio) and then analyzed by a LC-MS/MS method. Ketanserin was used as an internal reference compound, and two copies of Ketanserin were incubated in parallel.
A peak area ratio of analyte/internal standard (Aanalyte/A1s) was obtained by an instrument, and a remaining percentage (% Control) was calculated by ratios of Aanalyte/A1s in a sample at a non-zero time point and a sample at a zero time point. Ln (% Control) was plotted and fitted linearly with the incubation time. A scavenging constant (k, min^−1) and a scavenging half-life (T1/2, min) of the tested compound were calculated by the following equation.
For orientation: Liver microsomes are a subcellular fraction often used to study metabolism.

In data set [2] the target is T1, Native human Factor XIa protease (Homo sapiens, UniProt P03951).
T1 construct: The Native human Factor XIa protease was purchased from Abcam; purchased Abcam ab62411
T1 sequence (P03951 388-625 limits assumed): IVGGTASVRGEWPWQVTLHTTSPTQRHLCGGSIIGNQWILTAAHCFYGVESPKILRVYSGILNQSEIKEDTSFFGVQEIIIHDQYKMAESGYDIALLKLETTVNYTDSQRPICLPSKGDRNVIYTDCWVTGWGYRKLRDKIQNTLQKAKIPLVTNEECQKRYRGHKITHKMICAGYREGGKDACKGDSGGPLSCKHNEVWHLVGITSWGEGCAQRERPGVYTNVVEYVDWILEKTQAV
T1 sequence (P03951 19-387 partner limits assumed): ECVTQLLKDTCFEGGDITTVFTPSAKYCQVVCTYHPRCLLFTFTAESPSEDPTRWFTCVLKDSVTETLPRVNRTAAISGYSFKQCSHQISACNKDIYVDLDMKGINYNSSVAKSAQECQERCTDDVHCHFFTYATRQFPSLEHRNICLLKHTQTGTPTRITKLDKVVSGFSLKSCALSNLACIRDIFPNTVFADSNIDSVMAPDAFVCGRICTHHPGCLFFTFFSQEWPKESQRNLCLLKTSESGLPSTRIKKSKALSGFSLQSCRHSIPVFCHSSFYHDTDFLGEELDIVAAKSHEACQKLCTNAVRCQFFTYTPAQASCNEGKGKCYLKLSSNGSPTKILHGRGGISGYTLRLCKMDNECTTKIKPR
As to the kind of experiment: Inhibition of activity of Factor XIa protease (chromogenic substrate S-2366). It counts as biochemical. Particulars: S-2366 1 mM, 37° C. 10 minutes, absorption at 405 nm. The procedure, abridged: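 Native human Factor XIa (final […]) in 100 mM Tris-HCl, 200 mM NaCl, 0.02% Tween 20, pH 7.4, preincubated with compound 5 min on ice; 1 mM S-2366 added, 10 min at 37° C. Absorbance at 405 nm versus 0.1% DMSO control; IC50 by nonlinear regression, compound 10,000 nM to […] final.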

The next data set concerns human plasma. As to the kind of experiment: In-vitro anticoagulation on human plasma (APTT kit, coagulation time). Particulars: concentration of the compound when the coagulation time (APTT) was prolonged twice.
Data set [3] in a line: Pharmacokinetics in cynomolgus macaque. In kind it is in vivo. Conditions: male, cynomolgus monkey, plasma, po, intragastric administration 15 mg/kg. The protocol: Taking a cynomolgus macaque as a tested animal, the cynomolgus macaque was administrated with the compound in Example 96 of the present invention by intragastric administration, and drug concentrations in plasma at different times were determined by a LC/MS/MS method to study pharmacokinetic characteristics of the compound of the present invention in the cynomolgus macaque.
Cynomolgus macaque, male, 4.6 kg to 5.7 kg, adult, purchased from Guangxi Fangcheng Gang Spring Biological Technology Development Corporation Ltd.
Preparation of drug administrated by intragastric administration: a proper amount of compound to be tested was added to a proper amount of DMAC: (30% Kolliphor HS 15): Saline=5%: 10%; 85% (v/v/v), and shaken in a vortex manner, so as to prepare a final solution with a concentration of 3 mg/mL.
Cynomolgus macaques were organized into one group, which was an intragastric administration group (3 cynomolgus macaques in single group).
Intragastric administration group: the drug was administrated by intragastric administration (according to a dosage of 15 mg/kg and a volume of 5 ml/kg) after fasting overnight, and food was taken 4 hours after administration.
Intragastric administration group: about 500 μL of blood was collected into an EDTA-K2 anticoagulant tube through a cephalic vein and a saphenous vein 0.25 hour, 0.5 hour, 1 hour, 2 hours, 4 hours, 8 hours and 24 hours after administration.
The blood sample was placed on wet ice first, and plasma was centrifugally separated within 15 minutes after sampling (centrifugation conditions: 2,000 g, 4° C., 5 minutes). The collected upper plasma was stored at −70° C. before analysis.
Contents of the compound to be tested in cynomolgus macaque plasma after intragastric administration were determined by LC-MS/MS.

In the case of `COCC[C@@H](C(=O)Nc1ccc2nn(C)cc2c1)N1CC(=O)N(c2cc(Cl)ccc2-n2cc(Cl)nn2)CC1=O` [Example 96, (S)-2-(4-(5-chloro-2-(4-chloro-1H-1,2,3-triazol-1-yl)phenyl)-2,5-dioxopiperazin-1-yl)-4-methoxy-N-(2-methyl-2H-indazol-5-yl)butanamide], the half-life at 1 μM in data set [1] (mouse liver microsomes 0.5 mg/mL, 1 μM compound, NADPH, read-out: Half-life period (T1/2 min) Mouse) was found to be 5.53 h. Also, in data set [1] (mouse liver microsomes, in words), the “Half-life period and stability compared with Comparative Example 1” value is “longer half-life period and a higher stability”. Also, the IC50 in data set [2] came out at 42.8 nM. Further, the “CT2” value in the data set with human plasma was 5.3 µM. Besides, the Cmax in data set [3] (read-out: Blood concentration Cmax) was 834 ± 482 ng/mL. The AUC(0-t) in data set [3] (read-out: Curve area AUC0-t) came to 4210 ± 1240 ng·h/mL. The half-life in data set [3] (read-out: Half-life period T1/2(h) (converted)) is 3.71 ± 0.42 h.

Usually IC50 stands for the midpoint of a concentration-inhibition curve. Read a high IC50 as weaker potency.
